Results as given in US20210361767A1, “RESCUING CANCER PATIENTS FROM RESISTANCE TO TREATMENT WITH INHIBITORS OF PD-1/PD-L1 INTERACTIONS” (Mayo Foundation for Medical Education and Research, priority 2018, published 2021).

Assays:
[1] = system: Dul45 prostate cancer cells; test: sPD-L1 ELISA of supernatants of Dul45 prostate cancer cells; format: cell-based; settings: FIG. 4C
Description: (§1) Several tumor cell lines were treated with PBS (placebo) or with various protease inhibitors, including matrix metalloprotease inhibitors TAPI-2 and TAPI-0, aspartic protease inhibitor Pepstatin, cysteine protease inhibitor E-64, serine protease inhibitor Aprotinin, combinations of these inhibitors, and an array of other matrix metalloprotease inhibitors. Cell supernatants were queried for sPD-L1 by ELISA as published elsewhere (Frigola et la., supra). In brief, paired mouse IgG2 monoclonal antibodies against extracellular rhB7-H1 were utilized in a capture-detection plate assay using biotinylation and HRP-streptavidin detection. […] Concentrations were determined by optical density measurements along a known standard curve of rhB7-H1. Karpas-299 cells were incubated at 10 MM cells per ml in cell culture media (RPMI plus FBS plus Penicillin/Streptomycin plus buffering reagents) over 24 hours in the presence of 1 μl/100 μl DMSO or PBS (placebo), TAPI-2 at 278 μM, Pepstatin at 206.5 μM, E-64 at 185 μM, or Aprotinin at 220 μM, or a combination of the above materials at various concentrations. […] All statistical analyses were performed using R! software. Two-sided, unpaired Student t tests assessed statistical differences in experimental groups except where otherwise indicated. P values indicate comparison to vehicle control groups. P<0.05 was considered statistically significant.
Further studies were conducted using different types of cells.

[2] = system: A786-0 (renal cell carcinoma) cells; test: sPD-L1 ELISA of supernatants of A786-0 cells treated with protease inhibitors; format: cell-based; settings: n=5, FIG. 4E
Description: Tumor cells were treated with PBS (placebo) or with various protease inhibitors, including MMP inhibitors TAPI-2 and TAPI-0, aspartic protease inhibitor Pepstatin, cysteine protease inhibitor E-64, serine protease inhibitor Aprotinin, combinations of these inhibitors, and an array of other MMP inhibitors. Cell supernatants were queried for sPD-L1 by ELISA. FIG. 4A, Karpas-299 (lymphoma) cells were treated with the indicated protease inhibitors. FIG. 4B, A786-0 (renal cell carcinoma) cells were treated with the indicated protease inhibitors. FIG. 4C, Dul45 cells were treated with the indicated protease inhibitors. FIG. 4D, Mel-B7H1 (transgenic melanoma) cells were treated with the indicated protease or metalloprotease inhibitors. FIG. 4E is a graph plotting sPD-L1 production induced by interferon treatment or high cell titer in A786-0 cells. Cells grown at 1 MM/ml in control DMSO produced little sPD-L1. […] FIG. 4F is a graph plotting the amount of sPD-L1 in supernatants of Karpas-299 cells treated with control or with varying concentrations of the ADAM10/17 inhibitor aderbasib.
Several tumor cell lines were treated with PBS (placebo) or with various protease inhibitors, including matrix metalloprotease inhibitors TAPI-2 and TAPI-0, aspartic protease inhibitor Pepstatin, cysteine protease inhibitor E-64, serine protease inhibitor Aprotinin, combinations of these inhibitors, and an array of other matrix metalloprotease inhibitors. Cell supernatants were queried for sPD-L1 by ELISA as published elsewhere (Frigola et la., supra). In brief, paired mouse IgG2 monoclonal antibodies against extracellular rhB7-H1 were utilized in a capture-detection plate assay using biotinylation and HRP-streptavidin detection. […] Concentrations were determined by optical density measurements along a known standard curve of rhB7-H1. […] Two-sided, unpaired Student t tests assessed statistical differences in experimental groups except where otherwise indicated. […]

Karpas-299 cells = test: sPD-L1 ELISA of supernatants of Karpas-299 cells treated with protease inhibitors; format: cell-based; settings: for sPD-L1 production with increasing concentrations: Karpas-299, 1 MM-10 MM cells/ml, aderbasib 320 pM to 32 mM, FIG. 4F; for Karpas-299 production of sB7H1: Example 3, supernatants by ELISA, p<0.0001
Description: as §1
Subsequent studies were conducted in which Karpas-299 cells were incubated with different matrix metalloprotease inhibitors with varying specificities. For example, Karpas-299 cells were incubated at 10 MM cells per ml in cell culture media over 24 hours in the presence of 1 μl/100 μl DMSO (control), 50 μM TAPI-2, 50 μM TAPI-0, 50 μM GI254023X, 5 μM Ro 32-3555, 5 μM ARP 101, 50 μM UK 370106, 500 pM MMP-9 inhibitor I, 5 μM Doxycycline, or some combination thereof.
Aderbasib is a selective inhibitor of matrix metalloproteases ADAM10 and ADAM17. Karpas-299 cells were incubated at 1 MM-10 MM cells/ml and treated for 24 hours with concentrations of aderbasib ranging from 320 pM to […].
(§2) Karpas-299 lymphoma cells producing sB7-H1 were cultured with an array of protease inhibitors. Supernatants from these cultures were isolated and analyzed for sB7H1 concentration by ELISA. Subsequently, activated human CD8+ T cells were cultured with recombinant sB7H1 protein and cell survival was measured at 24 hours. CD8+ T cells also were cultured with sB7H1-rich tumor cell line supernatants versus sB7H1-depleted supernatants over 48 hours in the presence of placebo, low dose (10 nM), or high dose (1 μM) anti-PD-1 antibody pembrolizumab, and cell survival was measured.

CD8+ T cells [3] = test: CD8+ T cell survival with Karpas-299 supernatants, TMRE/Annexin-V flow cytometry; format: cell-based, human; settings: for survival of CD8+ T cells: with Karpas-299 supernatant
Description: CD8+ T cells isolated from healthy subjects were incubated in the presence of 50% Karpas-299 supernatants of varying types and 50% fresh cell culture media. Supernatant types included sPD-L1-rich supernatants from Karpas-299 cells, supernatants from Karpas-299 cells treated with TAPI-0 to prevent sPL-L1 production, supernatants from Karpas-299 cells “spiked” with TAPI-0 after sPD-L1 production, and fresh culture media controls (FIG. 5C). Karpas-299 cell supernatants were generated by incubation at 10 MM cells/ml for 48 hours. TMRE/Annexin-V binding was measured by flow cytometry to assess the level of CD8+ T cell survival. Antibodies and reagents used for flow cytometry were Annexin-V-FITC, anti-mouse CD16/32 (BioLegend; San Diego, Calif.); anti-PD-L1, mouse isotype control (eBioScience/Thermo Fisher Scientific; Waltham, Mass.), TMRE-PE (Abcam; Cambridge, Mass.), BD Wash/Perm (Becton Dickenson; Waltham, Mass.). Flow cytometry was performed and analyzed using FlowJo (Treestar; Ashland, Oreg.).
CD8+ T cells were incubated with supernatants from Karpas-299 cells as above, plus varying doses of several anti-PD-1 antibodies.
as §2

PD-L1 mRNA = PD-L1 mRNA expression by RT-PCR in Karpas-299 cells; format: cell-based; settings: Karpas-299, 50 μM TAPI-0, 24 hours; data not shown
[4] = system: Mel-B7H1 (transgenic melanoma) cells; test: sPD-L1 ELISA of supernatants of Mel-B7H1 cells; format: cell-based; settings: FIG. 4D
Description: as §1, with “significant. […]” for “significant.”

A549 cells [5] = test: sPD-L1 in supernatants of A549 cells treated with exogenous ADAM17; format: cell-based; settings: exogenous ADAM17 vs PBS control, FIG. 4G
A549 cells [6] = test: PD-L1 flow cytometry of A549 cells; format: cell-based; settings: vs DMSO, FIGS. 7C, 7D
Description: FIGS. 7A and 7B are flow cytometry plots and graphs showing that cell PD-L1 expression is restored by treatment with an inhibitor of ADAM10 and/or ADAM17, and is decreased by treatment with exogenous recombinant ADAM10 or ADAM17. Cells were incubated in the presence of the indicated treatments, and PD-L1 flow cytometry was performed.

CD8+ T cells [7] = test: CD8+ T cell survival with sPD-L1-rich Karpas-299 supernatant, with or without checkpoint inhibitors (trypan blue); format: cell-based, human; settings: with sPD-L1-rich Karpas-299 supernatant, therapeutic doses of checkpoint inhibitor, n=3, FIG. 5B
Description: FIG. 5A is a graph plotting survival of CD8+ human T cells cocultured in the presence of PBS control or 5 μg/ml or 10 μg/ml recombinant sPD-L1. […] FIG. 5B is a graph plotting survival of CD8+ human T cells cultured in the presence of PBS control or sPD-L1-rich Karpas-299 cell line supernatant, in the presence or absence of PD1 or PD-L1 checkpoint inhibitors. Cell survival was measured by trypan blue staining. […] FIGS. 5C and 5D are a series of flow cytometry plots indicating survival of CD8+ T cells treated with various cell extracts and an anti-PD-1 antibody (nivolumab or pembrolizumab) or an anti-PD-L1 antibody (atezolizumab). FIG. 5C, CD8+ T cells isolated from healthy subjects were incubated with sPD-L1-rich supernatants from Karpas-299 cells, supernatants from Karpas-299 cells treated with inhibitor TAPI-0, supernatants from Karpas-299 cells “spiked” with TAPI-0 after isolation, and controls (top), and TMRE uptake/Annexin-V binding was measured by flow cytometry to assess the level of CD8+ T cell survival. CD8+ T cells also were incubated with supernatants from Karpas-299 cells, plus the indicated doses of anti-PD-1 and anti-PD-L1 antibodies (bottom). FIG. 5D, CD8+ T cells were incubated with PD-L1-rich supernatants from A787-0 RCC cells and the indicated concentrations of pembrolizumab. […]

CD8+ T cells [8] = test: CD8+ T cell survival with A786-0 supernatant plus pembrolizumab; format: cell-based, human; settings: supernatants from A786-0 RCC cells (20% A786-0 supernatant), increasing concentrations; partial rescue; FIG. 5D
Description: FIG. 5A is a graph plotting survival of CD8+ human T cells cocultured in the presence of PBS control or 5 μg/ml or 10 μg/ml recombinant sPD-L1. […] FIG. 5B is a graph plotting survival of CD8+ human T cells cultured in the presence of PBS control or sPD-L1-rich Karpas-299 cell line supernatant, in the presence or absence of PD1 or PD-L1 checkpoint inhibitors. Cell survival was measured by trypan blue staining. […] FIGS. 5C and 5D are a series of flow cytometry plots indicating survival of CD8+ T cells treated with various cell extracts and an anti-PD-1 antibody (nivolumab or pembrolizumab) or an anti-PD-L1 antibody (atezolizumab). FIG. 5C, CD8+ T cells isolated from healthy subjects were incubated with sPD-L1-rich supernatants from Karpas-299 cells, supernatants from Karpas-299 cells treated with inhibitor TAPI-0, supernatants from Karpas-299 cells “spiked” with TAPI-0 after isolation, and controls (top), and TMRE uptake/Annexin-V binding was measured by flow cytometry to assess the level of CD8+ T cell survival. CD8+ T cells also were incubated with supernatants from Karpas-299 cells, plus the indicated doses of anti-PD-1 and anti-PD-L1 antibodies (bottom). FIG. 5D, CD8+ T cells were incubated with PD-L1-rich supernatants from A787-0 RCC cells and the indicated concentrations of pembrolizumab.
In brief, A786-0 cells were incubated at 10 MM cells/ml for 48 hours. […]

[9] = antibody at 1 μM, 1 μM pembrolizumab among the most effective, FIG. 5C

COC(=O)N1CC2(CC2)C[C@H](C(=O)NO)[C@H]1C(=O)N1CCN(c2ccccc2)CC1 [aderbasib]
sPD-L1 secretion versus controls [1]: significantly reduced | mean sPD-L1 production ([2]; A786-0 at 10 MM/ml, control DMSO 886 pg/ml, p=0.00018): 276 pg/mL | sPD-L1 production with increasing concentrations (Karpas-299 cells; 24 hours): decreasing concentrations of sPD-L1 | sPD-L1 production with increasing concentrations (Karpas-299 cells; 24 hours, listed as Aderbasib): reduces sPD-L1 production

CC(C)C[C@H](CC(=O)NO)C(=O)N[C@@H](Cc1ccc2ccccc2c1)C(=O)N[C@@H](C)C(N)=O [TAPI-0]
sPD-L1 secretion versus controls [1]: significantly reduced | mean sPD-L1 production ([2]; A786-0 at 1 MM/ml, interferon plus TAPI-0, interferon alone 923 pg/ml): 0 pg/mL | Karpas-299 production of sB7H1 (Karpas-299 cells): inhibited | secretion of sPD-L1 (Karpas-299 cells; Karpas-299, 10 MM cells per ml, 24 hours, 50 μM TAPI-0, vs DMSO, FIG. 4A, p=3.97×10^−7): reduced the secretion of sPD-L1 | rate of apoptosis of CD8+ T cells (CD8+ T cells [3]; 50% supernatant from TAPI-0 treated Karpas-299 cells and 50% fresh media, FIG. 5C): 2.46% | CD8+ T cell death (CD8+ T cells [3]; Karpas-299 supernatants with added TAPI-0): did not induce cell death | PD-L1 mRNA expression (PD-L1 mRNA): without reducing PD-L1 mRNA expression

CNC(=O)[C@@H](NC(=O)[C@H](CCCc1ccccc1)[C@H](C)N(O)C=O)C(C)(C)C [GI254023X]
sPD-L1 expression [4]: most significantly reduced | Karpas-299 production of sB7H1 (Karpas-299 cells): inhibited

ADAM17 (TACE): commercially-obtained, recombinant form of ADAM17 (TACE)
detectable sPD-L1 secreted (A549 cells [5]): higher amounts | PD-L1 expression (flow cytometry) (A549 cells [6]): decreased

CCN(CC)Cc1cc(C)c(N(Cc2ccccc2)S(=O)(=O)c2ccc(OC)cc2)c(C(=O)NO)c1 [MMPI9]
sPD-L1 secretion versus controls [1]: significantly reduced

nivolumab: anti-PD-1 antibody, trade name OPDIVO
survival of CD8+ T cells (CD8+ T cells [3]; [9]): increased the survival | rescue of CD8+ T cell survival (CD8+ T cells [7]): did not rescue

pembrolizumab: humanized anti-PD-1 antibody, trade name KEYTRUDA
survival of CD8+ T cells (CD8+ T cells [8]): increased the survival | sB7-H1-containing supernatant-induced CD8+ T cell death (CD8+ T cells [3]; Example 3, 48 hours, high dose (1 μM)): decreased | survival of CD8+ T cells (CD8+ T cells [3]; antibody at 10 nM, FIG. 5C): increased the survival | survival of CD8+ T cells (CD8+ T cells [3]; [9]): increased the survival | rescue of CD8+ T cell survival (CD8+ T cells [7]): did not rescue

B1: ADAM10: exogenous recombinant ADAM10 (protein)
chain: TTSAEKNTCQLYIQTDHLFFKYYGTREAVIAQISSHVKAIDTIYQTTDFSGIRNISFMVKRIRINTTADEKDPTNPFRFPNIGVEKFLELNSEQNHDDYCLAYVFTDRDFDDGVLGLAWVGAPSGSSGGICEKSKLYSDGKKKSLNTGIITVQNYGSHVPPKVSHITFAHEVGHNFGSPHDSGTECTPGESKNLGQKENGNYIMYARATSGDKLNNNKFSLCSIRNISQVLEKKRNNCFVESGQPICGNGMVEQGEECDCGYSDQCKDECCFDANQPEGRKCKLKPGKQCSPSQGPCCTAQCAFKSKSEKCRDDSDCAREGICNGFTALCPASDPKPNFTDCNRHTQVCINGQCAGSICEKYGLEECTCASSDGKDDKELCHVCCMKKMDPSTCASTGSVQWSRHFSGRTITLQPGSPCNDFRGYCDVFMRCRLVDADGPLARLKKAIFSPELYENIAE
PD-L1 expression (flow cytometry) (A549 cells [6]): decreased
